Results on two compounds are retold here after publication PMC10305119, “Analogs of 6-Bromohypaphorine with Increased Agonist Potency for α7 Nicotinic Receptor as Anti-Inflammatory Analgesic Agents” (Marine Drugs, 2023).

Entries after “also recorded” stand apart in the source; their conditions may differ.

The subject of assay [1] is CD86 expression on macrophages. As to the kind of experiment: Flow cytometry of CD86 protein on macrophages. The following applies: 48 h incubation. It counts as cell-based, human. On the procedure:
The effect of the above-listed compounds on the expression of the TLR4 receptor and the CD86 protein was studied by flow cytometry after 48 h incubation with macrophages. The interaction of bacterial endotoxins with the TLR4 receptor is known to activate the expression of several pro-inflammatory cytokine genes, while the co-stimulatory molecule CD86 plays an important role in […] inflammatory responses. A decrease in the expression of the TLR4 receptor was observed under the action of all tested compounds (Figure 4c,e), the rank order of these TLR4-suppressing effects was as follows: hypaphorine (14%) < PNU 282,987 (21%) < 6ID (31%).
Peripheral blood mononuclear cells (PBMCs) were separated by Ficoll-Paque PLUS density gradient centrifugation. PBMCs were placed in a sterile Petri dish and incubated at 37 °C for 2 h. Unattached cells were then removed by washing with PBS and substituted with fresh complete RPMI 1640 medium. To generate monocyte-derived macrophages (MDMs), 50 ng/mL GM-CSF was added to the isolated monocytes and cultured for 6 days to differentiate them into non-polarized MDMs.
Figure 4 The effects of PNU 282987, hypaphorine, and D-6-iodohypaphorine methyl ester (6ID) on macrophage membrane proteins expression. Cells were treated with these compounds for 48 h and then analyzed by flow cytometry. PNU 282,987 led to an increase in the (a) CD11b and (b) CD11c expression. (c): All tested compounds led to a decrease in TLR4 expression. (d): Macrophages stimulation with hypaphorine and 6ID promoted an increase in CD86 expression. Results obtained in three independent experiments on macrophages from different donors and presented as mean ± SD. One-way ANOVA tests with Tukey post hoc test: * p ˂0.05, ** p ˂ 0.01, **** p < 0.0001 in comparison with untreated cells.
On the technique in general: Flow cytometry measures light scatter and fluorescence of single cells or particles in a stream.

Assay [2] concerns myocardial infarction model. Further details: method as in PMID 35538277. The following applies: cited from earlier work.
For another assay, the system named is MIA-induced arthritis. The experiment in a line: Monoiodoacetate-induced arthritis model, functional tests. In kind it is in vivo, Wistar female rats. The procedure:
By the 8th day of the experiment, the maximum inflammation of the knee joint was noted. […] On the 8th and 16th days, the effect of the compound was assessed using a set of functional tests: weight distribution between the healthy and inflamed limbs immediately after the first 6ND injection (Figure 8a) and after eight days of 6ND administration (Figure 8b), muscle strength grasping the hind limbs after the first 6ND injection (Figure 8c) and after eight days of 6ND administration (Figure 8d), mechanical allodynia after the start of 6ND administration and after eight days of 6ND administration (Figure 8e,f, respectively), thermal hypersensitivity 2 h after administration of 6ND ([…]), and measuring the diameter of the knee joint (Figure 8h).
Four groups of animals were formed: control and three groups with modelling of inflammation by introducing monoiodoacetate (MIA). Three groups of animals were injected with 3 mg MIA in 50 μL of 0.9% sodium chloride through the patellar ligament into the intra-articular space of the right knee using a 29-G needle. Control rats received an equivalent volume of 0.9% sodium chloride.
Assessments of inflammation in vivo and functional tests were conducted on days 8 and 16 after arthritis model induction. Thermal and mechanical hypersensitivity and pain-induced articular disability were tested in this model. Body weight gain and paw oedema were also monitored during the experiment.
The inflamed paw withdrawal or licking latencies to thermal stimulation were measured on a hot plate device (Hot Plate Analgesia Meter, Columbus Instruments) with a set temperature of 53 ± 0.1 °C and a cut-off time of 60 s.
Mechanical hypersensitivity was measured by the electronic von Frey instrument (model BIO-EVF4; Bioseb, Vitrolles, France) used to vertically stimulate the center of the rat hind paw with increasing intensity. Measurements were repeated 3 times and the final value was obtained by averaging the 3 measurements.
Behavioral assessment of movement-caused pain was carried out in a hind limb grip strength test using a Grip Strength Meter (Columbus Instruments, Columbus, OH, USA) consisting of a wire mesh frame connected to the gauge. Rats were restrained and allowed to grasp the wire mesh frame with their hind paws and then were pulled backwards until the grip released. Three measurements were conducted with an interval of 30 s for the averaged grip strength calculation.

As for `COC(=O)[C@@H](Cc1c[nH]c2cc(I)ccc12)[N+](C)(C)C` [Compound 1, (D)-6-iodohypaphorine methyl ester], the “increase in the expression of CD86” value in assay [1] is given as 21%.
As for `COC(=O)C(Cc1c[nH]c2cc([N+](=O)[O-])ccc12)[N+](C)(C)C` (centres unmarked) [Compound 5, methyl ester of 6-nitrohypaphorine], the “effect in myocardial infarction model” value in assay [2] is “significant positive effect”. Further, the “anti-oedemic and analgesic effects in arthritis rat model” value with MIA-induced arthritis (i.p. doses 0.05–0.26 mg/kg) is “demonstrated anti-oedemic and analgesic effects”. Also, in the assay on MIA-induced arthritis (rats, 0.05 and 0.26 mg/kg, after eight days of administration, listed as 6ND), the “grip strength of affected limb” value is recorded as “significantly improved grip strength in MIA-induced arthritis in rats at a dose of 0.05 but not 0.26 mg/kg; also recorded: significantly improved grip strength of affected limb after eight days”. Moreover, the “body weight distribution between healthy and affected limbs” value in the assay on MIA-induced arthritis (rats, 0.05 and 0.26 mg/kg, days 8 and 16, listed as 6ND) is given as “No significant influence of 6ND on recovery was detected; also recorded: did not influence body weight distribution”. In the assay on MIA-induced arthritis (rats, 2 h after administration, listed as 6ND), the “thermal hyperalgesia in hot plate test” value is listed as “No significant effects of 6ND in hot plate test; also recorded: did not influence thermal hyperalgesia”. The mechanical allodynia result in the assay with MIA-induced arthritis (rats, 16 days after MIA, eight days of administration, listed as 6ND) is recorded as “dose-dependent improvement in allodynia test 16 days after MIA injection; also recorded: analgesic (anti-allodynic) effect”. The “oedema of the MIA-injected knee joint (diameter)” value with MIA-induced arthritis (rats, listed as 6ND) is “Significant effect in dynamics of oedema was detected in rats treated with 0.05 mg/kg 6ND; also recorded: anti-oedemic effect on the MIA-injected joint”.
